Measured values taken from PubChem BioAssay (NCI).
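Interpolation was linear, between the two tested concentrations surrounding the appropriate level; five concentrations were tested over 48 hours in 96-well plates. GI50 = concentration required for 50% inhibition of growth. At the TGI there is no net growth.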

Tests used:
Test in all cases: DTP human tumour cell line panel, 48 h
786-0 renal = tested on: 786-0 renal
A498 renal = tested on: A498 renal
ACHN renal = tested on: ACHN renal
CAKI-1 renal = tested on: CAKI-1 renal
CCRF-CEM leukemia = tested on: CCRF-CEM leukemia
DU-145 prostate = tested on: DU-145 prostate
EKVX NSCLC = tested on: EKVX NSCLC
HCC-2998 colon = tested on: HCC-2998 colon
HCT-116 colon = tested on: HCT-116 colon
HCT-15 colon = tested on: HCT-15 colon
HL-60(TB) leukemia = tested on: HL-60(TB) leukemia
HOP-62 NSCLC = tested on: HOP-62 NSCLC
HOP-92 NSCLC = tested on: HOP-92 NSCLC
HS 578T breast = tested on: HS 578T breast
HT29 colon = tested on: HT29 colon
IGROV1 ovarian = tested on: IGROV1 ovarian
K-562 leukemia = tested on: K-562 leukemia
KM12 colon = tested on: KM12 colon
LOX IMVI melanoma = tested on: LOX IMVI melanoma
M14 melanoma = tested on: M14 melanoma
MCF7 breast = tested on: MCF7 breast
MDA-MB-231 breast = tested on: MDA-MB-231 breast
MDA-MB-435 = tested on: MDA-MB-435
MOLT-4 leukemia = tested on: MOLT-4 leukemia
NCI-H226 lung = tested on: NCI-H226 lung
NCI-H23 lung = tested on: NCI-H23 lung
NCI-H460 lung = tested on: NCI-H460 lung
NCI-H522 lung = tested on: NCI-H522 lung
NCI/ADR-RES ovarian = tested on: NCI/ADR-RES ovarian
OVCAR-3 ovarian = tested on: OVCAR-3 ovarian
OVCAR-4 ovarian = tested on: OVCAR-4 ovarian
OVCAR-5 ovarian = tested on: OVCAR-5 ovarian
OVCAR-8 ovarian = tested on: OVCAR-8 ovarian
PC-3 prostate = tested on: PC-3 prostate
RPMI-8226 leukemia = tested on: RPMI-8226 leukemia
RXF 393 renal = tested on: RXF 393 renal
SF-268 CNS = tested on: SF-268 CNS
SF-295 CNS = tested on: SF-295 CNS
SF-539 CNS = tested on: SF-539 CNS
SK-MEL-2 melanoma = tested on: SK-MEL-2 melanoma
SK-MEL-28 melanoma = tested on: SK-MEL-28 melanoma
SK-MEL-5 melanoma = tested on: SK-MEL-5 melanoma
SK-OV-3 ovarian = tested on: SK-OV-3 ovarian
SR leukemia = tested on: SR leukemia
SW-620 colon = tested on: SW-620 colon
T-47D breast = tested on: T-47D breast
TK-10 renal = tested on: TK-10 renal
U251 CNS = tested on: U251 CNS
UACC-257 melanoma = tested on: UACC-257 melanoma
UO-31 renal = tested on: UO-31 renal
A549 NSCLC = tested on: A549 NSCLC
BT-549 breast = tested on: BT-549 breast
COLO 205 colon = tested on: COLO 205 colon
SN12C renal = tested on: SN12C renal
SNB-19 CNS = tested on: SNB-19 CNS
SNB-75 CNS = tested on: SNB-75 CNS
UACC-62 melanoma = tested on: UACC-62 melanoma

SMILES: CCn1c(-c2cc3ccccc3cc2OC(C)=O)n[nH]c1=S
- TGI (786-0 renal): > 100 µM
- TGI (A498 renal): 84.8 µM
- TGI (ACHN renal): > 100 µM
- TGI (CAKI-1 renal): > 100 µM
- TGI (CCRF-CEM leukemia): 34.2 µM
- TGI (DU-145 prostate): 81.1 µM
- TGI (EKVX NSCLC): 57.9 µM
- TGI (HCC-2998 colon): 38.5 µM
- TGI (HCT-116 colon): 41.7 µM
- TGI (HCT-15 colon): 87.1 µM
- TGI (HL-60(TB) leukemia): 19.5 µM
- TGI (HOP-62 NSCLC): > 100 µM
- TGI (HOP-92 NSCLC): > 100 µM
- TGI (HS 578T breast): 54.6 µM
- TGI (HT29 colon): > 100 µM
- TGI (IGROV1 ovarian): > 100 µM
- TGI (K-562 leukemia): 33.1 µM
- TGI (KM12 colon): > 100 µM
- TGI (LOX IMVI melanoma): > 100 µM
- TGI (M14 melanoma): > 100 µM
- TGI (MCF7 breast): > 100 µM
- TGI (MDA-MB-231 breast): 80.4 µM
- TGI (MDA-MB-435): > 100 µM
- TGI (MOLT-4 leukemia): 51.3 µM
- TGI (NCI-H226 lung): > 100 µM
- TGI (NCI-H23 lung): 87.9 µM
- TGI (NCI-H460 lung): 69.8 µM
- TGI (NCI-H522 lung): 38.8 µM
- TGI (NCI/ADR-RES ovarian): 60.9 µM
- TGI (OVCAR-3 ovarian): 67.8 µM
- TGI (OVCAR-4 ovarian): > 100 µM
- TGI (OVCAR-5 ovarian): > 100 µM
- TGI (OVCAR-8 ovarian): > 100 µM
- TGI (PC-3 prostate): 39.2 µM
- TGI (RPMI-8226 leukemia): 44.6 µM
- TGI (RXF 393 renal): 33.5 µM
- TGI (SF-268 CNS): > 100 µM
- TGI (SF-295 CNS): > 100 µM
- TGI (SF-539 CNS): > 100 µM
- TGI (SK-MEL-2 melanoma): 41.3 µM
- TGI (SK-MEL-28 melanoma): > 100 µM
- TGI (SK-MEL-5 melanoma): 38.2 µM
- TGI (SK-OV-3 ovarian): > 100 µM
- TGI (SR leukemia): 4.79 µM
- TGI (SW-620 colon): > 100 µM
- TGI (T-47D breast): 43.3 µM
- TGI (TK-10 renal): 75.6 µM
- TGI (U251 CNS): 51.4 µM
- TGI (UACC-257 melanoma): 62.6 µM
- TGI (UO-31 renal): > 100 µM

SMILES: O=C(Cc1csc2nc(-c3ccc(Br)cc3)cn12)N/N=C/c1ccccc1O
- GI50 (786-0 renal): 4.68 µM
- TGI (786-0 renal): 17.7 µM
- GI50 (A549 NSCLC): 6.22 µM
- TGI (A549 NSCLC): 24.2 µM
- GI50 (ACHN renal): 1.57 µM
- TGI (ACHN renal): 6.3 µM
- GI50 (BT-549 breast): 10.1 µM
- TGI (BT-549 breast): 22.6 µM
- GI50 (CAKI-1 renal): 0.397 µM
- TGI (CAKI-1 renal): 2.4 µM
- GI50 (CCRF-CEM leukemia): 1.81 µM
- TGI (CCRF-CEM leukemia): 8.41 µM
- GI50 (COLO 205 colon): 5.08 µM
- TGI (COLO 205 colon): 23.1 µM
- GI50 (DU-145 prostate): 2.89 µM
- TGI (DU-145 prostate): 13.9 µM
- GI50 (EKVX NSCLC): 3.93 µM
- TGI (EKVX NSCLC): 19.2 µM
- GI50 (HCC-2998 colon): 3.48 µM
- TGI (HCC-2998 colon): 12.7 µM
- GI50 (HCT-116 colon): 3.21 µM
- TGI (HCT-116 colon): 12.4 µM
- GI50 (HCT-15 colon): 0.952 µM
- TGI (HCT-15 colon): 17.3 µM
- GI50 (HOP-62 NSCLC): 3.88 µM
- TGI (HOP-62 NSCLC): 14.9 µM
- GI50 (HOP-92 NSCLC): 2.1 µM
- TGI (HOP-92 NSCLC): 14.6 µM
- GI50 (HS 578T breast): 13.4 µM
- TGI (HS 578T breast): 42.3 µM
- GI50 (HT29 colon): 5.97 µM
- TGI (HT29 colon): 19.2 µM
- GI50 (IGROV1 ovarian): 1.04 µM
- TGI (IGROV1 ovarian): 11.5 µM
- GI50 (K-562 leukemia): 0.0372 µM
- TGI (K-562 leukemia): 2.95 µM
- GI50 (KM12 colon): 3.62 µM
- TGI (KM12 colon): 16.8 µM
- GI50 (LOX IMVI melanoma): 3.47 µM
- TGI (LOX IMVI melanoma): 13 µM
- GI50 (M14 melanoma): 2.58 µM
- TGI (M14 melanoma): 7.77 µM
- GI50 (MCF7 breast): 13.2 µM
- TGI (MCF7 breast): > 100 µM
- GI50 (MDA-MB-231 breast): 3.27 µM
- TGI (MDA-MB-231 breast): 17 µM
- GI50 (MDA-MB-435): 3.33 µM
- TGI (MDA-MB-435): 13.6 µM
- GI50 (MOLT-4 leukemia): 2.35 µM
- TGI (MOLT-4 leukemia): 10.8 µM
- GI50 (NCI-H226 lung): 1.93 µM
- TGI (NCI-H226 lung): 7.84 µM
- GI50 (NCI-H23 lung): 3.43 µM
- TGI (NCI-H23 lung): 14 µM
- GI50 (NCI-H460 lung): 15.7 µM
- TGI (NCI-H460 lung): > 100 µM
- GI50 (NCI-H522 lung): 5.27 µM
- TGI (NCI-H522 lung): 27.2 µM
- GI50 (NCI/ADR-RES ovarian): 2.53 µM
- TGI (NCI/ADR-RES ovarian): 6.83 µM
- GI50 (OVCAR-3 ovarian): 3.22 µM
- TGI (OVCAR-3 ovarian): 15.1 µM
- GI50 (OVCAR-5 ovarian): 5.51 µM
- TGI (OVCAR-5 ovarian): 31.9 µM
- GI50 (OVCAR-8 ovarian): 2.28 µM
- TGI (OVCAR-8 ovarian): 12.4 µM
- GI50 (PC-3 prostate): 4.28 µM
- TGI (PC-3 prostate): 16.7 µM
- GI50 (RPMI-8226 leukemia): 2.83 µM
- TGI (RPMI-8226 leukemia): 20.7 µM
- GI50 (RXF 393 renal): 37.7 µM
- TGI (RXF 393 renal): 62.5 µM
- GI50 (SF-268 CNS): > 100 µM
- TGI (SF-268 CNS): > 100 µM
- GI50 (SF-295 CNS): 2.73 µM
- TGI (SF-295 CNS): 9.34 µM
- GI50 (SF-539 CNS): 3.55 µM
- TGI (SF-539 CNS): 11.8 µM
- GI50 (SK-MEL-2 melanoma): 21.1 µM
- TGI (SK-MEL-2 melanoma): 53.8 µM
- GI50 (SK-MEL-28 melanoma): 11.9 µM
- TGI (SK-MEL-28 melanoma): 24.2 µM
- GI50 (SK-MEL-5 melanoma): 2.98 µM
- TGI (SK-MEL-5 melanoma): 10.6 µM
- GI50 (SK-OV-3 ovarian): 12.8 µM
- TGI (SK-OV-3 ovarian): 30.2 µM
- GI50 (SN12C renal): 3.34 µM
- TGI (SN12C renal): 16 µM
- GI50 (SNB-19 CNS): 6.8 µM
- TGI (SNB-19 CNS): 25.4 µM
- GI50 (SNB-75 CNS): 13 µM
- TGI (SNB-75 CNS): 32 µM
- GI50 (SW-620 colon): 3.98 µM
- TGI (SW-620 colon): 17.2 µM
- GI50 (T-47D breast): 5.22 µM
- TGI (T-47D breast): 23.2 µM
- GI50 (TK-10 renal): 2.05 µM
- TGI (TK-10 renal): 8.72 µM
- GI50 (U251 CNS): 3.67 µM
- TGI (U251 CNS): 15.1 µM
- GI50 (UACC-257 melanoma): 3.68 µM
- TGI (UACC-257 melanoma): 11.6 µM
- GI50 (UACC-62 melanoma): 2.09 µM
- TGI (UACC-62 melanoma): 7.28 µM
- GI50 (UO-31 renal): 7.16 µM
- TGI (UO-31 renal): > 100 µM
